Active and inactive are the calls of the source.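 How the source made its calls: active means EC50 of 10 µM or lower; inactive means EC50 above 10 µM.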
Each compound was assayed against Trace amine-associated receptor 1 (Homo sapiens) (UniProt Q96RJ0) (assay: activators of human TAAR1 receptor – cell-based, fluorescence, MDRUN002, late-stage follow-up (AID 1053177)). Details: CHO TAAR1-HGA16 cells, cAMP TR-FRET, agonist.
Sequence of Trace amine-associated receptor 1 (Homo sapiens) (Q96RJ0 whole entry, looked up, the tested form may be a part): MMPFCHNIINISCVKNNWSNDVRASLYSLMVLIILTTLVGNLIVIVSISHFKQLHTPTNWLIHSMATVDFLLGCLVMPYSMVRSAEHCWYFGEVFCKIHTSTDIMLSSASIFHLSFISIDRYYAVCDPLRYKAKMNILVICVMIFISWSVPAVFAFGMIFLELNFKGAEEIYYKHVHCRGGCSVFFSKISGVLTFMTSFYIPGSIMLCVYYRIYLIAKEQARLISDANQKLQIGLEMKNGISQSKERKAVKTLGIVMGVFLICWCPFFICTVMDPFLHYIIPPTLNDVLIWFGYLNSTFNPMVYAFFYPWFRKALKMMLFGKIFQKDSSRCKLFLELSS

Structure (SMILES)	EC50
N#Cc1c(C(F)(F)F)cc(-c2ccc(Cl)cc2)nc1SCC(=O)Nc1ncccn1	> 37400 nM (inactive)
CC(CN1CCCC1Cc1ccccc1)C(=O)c1ccc2c(c1)OCCO2 (configuration not stated)	438 nM
COc1cc(C(=O)CCN2CCC(c3ccccc3)C2)cc(OC)c1OC (configuration not stated)	131 nM
N#Cc1c(C(F)(F)F)cc(-c2ccc(Cl)cc2)nc1SCC(=O)N1CCCCCC1	> 37400 nM (inactive)
Cc1ccc(C(=O)CCN2CCC(c3ccccc3)C2)cc1 (configuration not stated)	335 nM
O=C(CCN1CCC(c2ccccc2)C1)c1ccccc1 (configuration not stated)	97.3 nM
N#Cc1c(C(F)(F)F)cc(-c2ccc(Cl)cc2)nc1SCC(=O)N1CCCC1	> 37400 nM (inactive)

— PubChem BioAssay AID1053177 (The Scripps Research Institute Molecular Screening Center, 2014)
